Target: T1, human S1P1 receptor (Homo sapiens, UniProt P21453)
T1 construct: expressed in transfected cells; membranes used
Assay: GTP γ35S binding assay for S1P1 activity
Assay type: biochemical
Details: membranes of cells stably expressing the S1P1 receptor, test concentrations 0.08 to 5,000 nM, 30 min at 25° C.
Protocol: Compounds were synthesized and tested for S1P1 activity using the GTP γ^35S binding assay. These compounds may be assessed for their ability to activate or block activation of the human S1P1 receptor in cells stably expressing the S1P1 receptor. GTP γ^35S binding was measured in the medium containing (mM) HEPES 25, pH 7.4, MgCl2 10, NaCl 100, dithitothreitol 0.5, digitonin 0.003%, 0.2 nM GTP γ^35S, and 5 μg membrane protein in a volume of 150 μl. Test compounds were included in the concentration range from 0.08 to 5,000 nM unless indicated otherwise. Membranes were incubated with 100 μM 5′-adenylylimmidodiphosphate for 30 min, and subsequently with 10 μM GDP for 10 min on ice. Drug solutions and membrane were mixed, and then reactions were initiated by adding GTP γ^35S and continued for 30 min at 25° C. Reaction mixtures were filtered over Whatman GF/B filters under vacuum, and washed three times with 3 mL of ice-cold buffer (HEPES 25, pH7.4, MgCl2 10 and NaCl 100). Filters were dried and mixed with scintillant, and counted for ^35S activity using a β-counter. Agonist-induced GTP γ^35S binding was obtained by subtracting that in the absence of agonist. Binding data were analyzed using a non-linear regression method. In case of antagonist assay, the reaction mixture contained 10 nM S1P in the presence of test antagonist at concentrations ranging from 0.08 to 5000 nM.
Activity potency: S1P1 receptor from GTP γ^35S: nM, (EC50),

T1 sequence (P21453 whole entry): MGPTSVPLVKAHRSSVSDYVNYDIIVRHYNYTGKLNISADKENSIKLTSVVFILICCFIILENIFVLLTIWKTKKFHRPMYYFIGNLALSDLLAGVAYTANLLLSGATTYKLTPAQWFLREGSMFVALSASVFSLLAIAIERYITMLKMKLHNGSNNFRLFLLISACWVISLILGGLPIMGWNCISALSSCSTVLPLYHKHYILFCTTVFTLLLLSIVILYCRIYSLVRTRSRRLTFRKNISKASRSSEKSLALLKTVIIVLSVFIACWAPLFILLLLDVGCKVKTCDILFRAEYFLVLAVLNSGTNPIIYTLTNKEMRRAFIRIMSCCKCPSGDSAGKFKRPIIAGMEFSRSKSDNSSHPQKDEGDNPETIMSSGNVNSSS

| SMILES | EC50 |
| --- | --- |
| Cc1ccc(/C=C(\CCC[S+]([O-])c2ccc(CNCCC(=O)O)cc2)c2cccc(Cl)c2)cc1C (centres unmarked) [Compound 5, 3-[(4-{[(4E)-4-(3-Chlorophenyl)-5-(3,4-dimethylphenyl)pent-4-en-1-yl]sulfinyl}benzyl)amino]propanoic acid] | 450 nM |
| Cc1ccc(/C=C(\CCC[S+]([O-])c2ccc(CNCCC(=O)O)cc2)c2cc(F)cc(F)c2)cc1C (centres unmarked) [Compound 7, 3-[(4-{[(4E)-4-(3,5-Difluorophenyl)-5-(3,4-dimethylphenyl)pent-4-en-1-yl]sulfinyl}benzyl)amino]propanoic acid] | 111 nM |
| Cc1ccc(/C=C(\CCCCSc2ccc(CNCCC(=O)O)cc2)c2cc(F)cc(F)c2)cc1C [Compound 9, 3-[(4-{[(5E)-5-(3,5-Difluorophenyl)-6-(3,4-dimethylphenyl)hex-5-en-1-yl]thio}benzyl)amino]propanoic acid] | 639 nM |

Stronger by EC50, values ahead:

| EC50 | SMILES |
| --- | --- |
| 73.2 nM | Cc1ccc(/C=C(\CCCOc2ccc(CNCCC(=O)O)cc2)c2cccc(Cl)c2)cc1C [Compound 2, 3-[(4-{[(4E)-4-(3-Chlorophenyl)-5-(3,4-dimethylphenyl)pent-4-en-1-yl]oxy}benzyl)amino]propanoic acid] |
| 51.9 nM | Cc1ccc(/C=C(\CCCOc2ccc(CNCCC(=O)O)cc2)c2cc(F)cc(F)c2)cc1C [Compound 3, 3-[(4-{[(4E)-4-(3,5-Difluorophenyl)-5-(3,4-dimethylphenyl)pent-4-en-1-yl]oxy}benzyl)amino]propanoic acid] |
| 10.2 nM | Cc1ccc(/C=C(\CCCSc2ccc(CNCCC(=O)O)cc2)c2cc(F)cc(F)c2)cc1C [Compound 8, 3-[(4-{[(4E)-4-(3,5-Difluorophenyl)-5-(3,4-dimethylphenyl)pent-4-en-1-yl]thio}benzyl)amino]propanoic acid] |
| 9.65 nM | Cc1ccc(/C=C(\CCCOc2ccc(CNCCCP(=O)(O)O)cc2)c2cccc(Cl)c2)cc1C [Compound 1, {3-[(4-{[(4E)-4-(3-Chlorophenyl)-5-(3,4-dimethylphenyl)pent-4-en-1-yl]oxy}benzyl)amino]propyl}phosphonic acid] |
| 7.84 nM | Cc1ccc(/C=C(\CCCOc2ccc(CNCCCP(=O)(O)O)cc2)c2cc(F)cc(F)c2)cc1C [Compound 4, {3-[(4-{[(4E)-4-(3,5-Difluorophenyl)-5-(3,4-dimethylphenyl)pent-4-en-1-yl]oxy}benzyl)amino]propyl}phosphonic acid] |

— patent publication US20140228325A1, “ALKENE DERIVATIVES AS SPHINGOSINE 1-PHOSPHATE (S1P) RECEPTOR MODULATORS” (Allergan, Inc., priority 2013, published 2014)
